Measured values from patent US20250100982A1, “PLEUROMUTILIN DERIVATIVE WITH THIAZOLE SIDE CHAIN AND PREPARATION AND APPLICATION” (SOUTH CHINA AGRICULTURAL UNIVERSITY, priority 2023, published 2025).
≈ marks a conversion by molar mass, not a printed value.

Key:
clinical S. aureus 144 = test: In vitro antibacterial experiment, broth dilution MIC; format: cell-based, Staphylococcus aureus; details: 37° C., 24 h, clinical isolate
Description: (§1) A broth dilution method was used in the experiment. Tiamulin was selected as a control drug in the experiment. The tiamulin is a pleuromutilin antibiotic as well as one of the top ten veterinary antibiotics in the world.
(§2) The strains used in the experiment were methicillin-resistant Staphylococcus aureus ATCC43300, Staphylococcus aureus ATCC29213, clinical Staphylococcus aureus AD3, clinical S. aureus 144, Mycoplasma gallisepticum 352, 352 tiamulin induced drug-resistant bacteria and clinical isolates M47.
(§3) Preparation of target compound stock solution: 6.4 mg of target compound was accurately weighed, placed in a 5 mL volumetric flask, and dissolved with 0.25 mL of DMSO and 0.25 mL of Tween 80; then 4.5 mL of distilled water was added for fixing the volume; the solution was fully shaken to obtain a stock solution (1280 μg/mL); and the stock solution was filtered with a 0.22 μm filter membrane and sterilized, subpackaged into small tubes, and stored at −20° C. The control drug tiamulin was also prepared according to the above method.
(§4) Preparation of bacterial solution: the strains that were well preserved at −20° C. were taken out and inoculated on a new MH plate, and after culture at 37° C. for 24 h, a single colony was selected and inoculated in MH medium for culturing again for 24 h. The selected single colony was transferred to sterile normal saline and the turbidity was adjusted to 0.6 McF. At this moment, the concentration of the bacterial solution was 10^6 CFU/mL.
(§5) Preparation of MIC plate: a sterile 96-well plate was taken; 180 μL of MH broth medium was added to the first well, 100 μL of MH broth medium was added to the second well to the 12th well; 20 μL of target compound solution with a concentration of 1280 μg/mL was added to the first well; after even mixing, 100 μL of solution was added to the second well, and mixed well; 100 μL of solution was absorbed to the third well, and so on; and 100 μL of solution was absorbed to the 12th well and discarded. At this moment, the drug concentrations in the wells were: 128, 64, 32, 16, 8, 4, 2, 1, 0.5, 0.25, 0.125, and 0.06 μg/mL, and three parallel groups were made for the drugs of the concentrations.
(§6) Inoculation of bacterial solution: 100 μL of bacterial solution was added into the first well to the 12th well, so that the final bacterial solution concentration in each well was about 5×10^5 CFU/mL, and the drug concentrations in the first well to the 12th well were 64, 32, 16, 8, 4, 2, 1, 0.5, 0.25, 0.125, 0.06 and 0.03 μg/mL respectively. […] When a single jumping hole occurred in the microbroth dilution method, the maximum drug concentration for inhibiting bacteria was recorded, and the experiment shall be repeated if multiple jumping holes occurred.

[1] = tested on: Mycoplasma gallisepticum 352-tiamulin resistant strain; test: microbe, parasite or virus in culture; format: cell-based; details: for MIC, Mycoplasma gallisepticum 352-tiamulin resistant strain: broth dilution, 37° C.
Experimental: (§7) The broth dilution method was adopted in the experiment. The tiamulin was selected as the control drug in the experiment.
(§8) The strains used in the experiment were Mycoplasma gallisepticum 352, 352-tiamulin resistant strain, and M47.
(§9) Preparation of the target compound stock solution: the compound was dissolved with 1 mL of DMSO, then fixed in volume with a 250 mL volumetric flask and fully shaken to obtain the stock solution (5120 μg/mL).
(§10) The stock solution was diluted in petri dishes with a doubling dilution method. Each petri dish contained 2 ml of medical solution, and the medical solution was diluted to 20 ml, so that the final concentrations of the compound were […] respectively.
(§11) 15 sterile 2 mL EP tubes were placed in each row. 0.9 mL of liquid medium was added to the first tube, and 0.5 mL of liquid medium was added to the other tubes respectively. 0.1 mL of prepared medical solution was added to the first tube and fully mixed. Then, 0.5 mL of medical solution was added to the second tube, and so on. Finally, 0.5 mL of medical solution was absorbed and discarded.

[2] = tested on: methicillin-resistant Staphylococcus aureus ATCC43300; test: microbe, parasite or virus in culture; format: cell-based; details: 24 h; for MIC, MRSA ATCC 43300: broth dilution, 37° C.
Description: as §1, §2, §3, §4, §5, §6

[3] = tested on: Mycoplasma gallisepticum 352; test: In vitro inhibition experiment of mycoplasma activity, broth dilution MIC; format: cell-based; details: for MIC, Mycoplasma gallisepticum 352: 37° C.
Experimental: as §7, §8, §9, §10, §11

[4] = tested on: Mycoplasma gallisepticum M47; test: as above; format: cell-based; details: clinical isolate; for MIC, Mycoplasma gallisepticum M47: 37° C.
Experimental: as §7, §8, §9, §10, §11

[5] = tested on: Staphylococcus aureus ATCC29213; test: In vitro antibacterial experiment, broth dilution MIC; format: cell-based; details: 24 h; for MIC, S. aureus ATCC 29213: 37° C.
Description: as §1, §2, §3, §4, §5, §6

[6] = tested on: clinical Staphylococcus aureus AD3; test: as above; format: cell-based; details: 37° C., 24 h, clinical isolate
Description: as §1, §2, §3, §4, §5, §6

## C=CC1(C)CC(OC(=O)CSc2ncc(NC(=O)C3CCCCC3)s2)C2(C)C(C)CCC3(CCC(=O)C32)C(C)C1O (stereo not drawn) [Compound 4]
Clinical S. aureus 144
  MIC, S. aureus 144: 0.0625 µg/mL (≈ 0.104 µM)
[1]
  MIC, Mycoplasma gallisepticum 352-tiamulin resistant strain: 0.25 µg/mL (≈ 0.415 µM)
[2]
  MIC, MRSA ATCC 43300: 0.125 µg/mL (≈ 0.207 µM)
[3]
  MIC, Mycoplasma gallisepticum 352: 0.015 µg/mL (≈ 0.0249 µM)
[4]
  MIC, Mycoplasma gallisepticum M47: 1 µg/mL (≈ 1.66 µM)
[5]
  MIC, S. aureus ATCC 29213: 0.03125 µg/mL (≈ 0.0518 µM)
[6]
  MIC, S. aureus AD3: 0.0625 µg/mL (≈ 0.104 µM)

## C=CC1(C)CC(OC(=O)CSc2ncc(NC(=O)C(Cl)(Cl)Cl)s2)C2(C)C(C)CCC3(CCC(=O)C32)C(C)C1O (stereo not drawn) [Compound 23]
Clinical S. aureus 144
  MIC, S. aureus 144: 2 µg/mL (≈ 3.13 µM)
[1]
  MIC, Mycoplasma gallisepticum 352-tiamulin resistant strain: 1 µg/mL (≈ 1.57 µM)
[2]
  MIC, MRSA ATCC 43300: 1 µg/mL (≈ 1.57 µM)
[3]
  MIC, Mycoplasma gallisepticum 352: 0.125 µg/mL (≈ 0.196 µM)
[4]
  MIC, Mycoplasma gallisepticum M47: 4 µg/mL (≈ 6.27 µM)
[5]
  MIC, S. aureus ATCC 29213: 2 µg/mL (≈ 3.13 µM)
[6]
  MIC, S. aureus AD3: 1 µg/mL (≈ 1.57 µM)

## C=CC1(C)CC(OC(=O)CSc2ncc(NC(=O)COC(C)=O)s2)C2(C)C(C)CCC3(CCC(=O)C32)C(C)C1O (stereo not drawn) [Compound 10]
Clinical S. aureus 144
  MIC, S. aureus 144: 0.0625 µg/mL (≈ 0.105 µM)
[1]
  MIC, Mycoplasma gallisepticum 352-tiamulin resistant strain: 0.03 µg/mL (≈ 0.0506 µM)
[2]
  MIC, MRSA ATCC 43300: 0.0625 µg/mL (≈ 0.105 µM)
[3]
  MIC, Mycoplasma gallisepticum 352: ≤0.004 µg/mL
[4]
  MIC, Mycoplasma gallisepticum M47: 0.03 µg/mL (≈ 0.0506 µM)
[5]
  MIC, S. aureus ATCC 29213: 0.125 µg/mL (≈ 0.211 µM)
[6]
  MIC, S. aureus AD3: 0.125 µg/mL (≈ 0.211 µM)

## C=CC1(C)CC(OC(=O)CSc2ncc(NC(=O)C3CCC3)s2)C2(C)C(C)CCC3(CCC(=O)C32)C(C)C1O (stereo not drawn) [Compound 2]
Clinical S. aureus 144
  MIC, S. aureus 144: 0.25 µg/mL (≈ 0.435 µM)
[1]
  MIC, Mycoplasma gallisepticum 352-tiamulin resistant strain: 0.25 µg/mL (≈ 0.435 µM)
[2]
  MIC, MRSA ATCC 43300: 0.0625 µg/mL (≈ 0.109 µM)
[3]
  MIC, Mycoplasma gallisepticum 352: 0.008 µg/mL (≈ 0.0139 µM)
[4]
  MIC, Mycoplasma gallisepticum M47: 0.5 µg/mL (≈ 0.87 µM)
[5]
  MIC, S. aureus ATCC 29213: 0.125 µg/mL (≈ 0.217 µM)
[6]
  MIC, S. aureus AD3: 0.125 µg/mL (≈ 0.217 µM)

## C=C[C@]1(C)C[C@@H](OC(=O)CSCCN(CC)CC)[C@]2(C)[C@H](C)CC[C@]3(CCC(=O)[C@H]32)[C@@H](C)[C@@H]1O [Tiamulin, reference compound]
Clinical S. aureus 144; Staphylococcus aureus
  MIC: 1 µg/mL (≈ 2.03 µM)
[1]; Mycoplasmoides gallisepticum, read-out: MIC, Mycoplasma gallisepticum 352-tiamulin resistant strain
  MIC: 0.25 µg/mL (≈ 0.506 µM)
[2]; Staphylococcus aureus, ATCC 43300 / MRSA, read-out: MIC, MRSA ATCC 43300
  MIC: 0.5 µg/mL (≈ 1.01 µM)
[3]; Mycoplasmoides gallisepticum, 352, 37° C.
  MIC: ≤ 0.004 µg/mL
[4]; Mycoplasmoides gallisepticum, M47, 37° C.
  MIC: 0.125 µg/mL (≈ 0.253 µM)
[5]; Staphylococcus aureus, ATCC29213, 37° C., read-out: MIC, S. aureus ATCC 29213
  MIC: 1 µg/mL (≈ 2.03 µM)
[6]; Staphylococcus aureus, read-out: MIC, S. aureus AD3
  MIC: 1 µg/mL (≈ 2.03 µM)

## C=CC1(C)CC(OC(=O)CSc2ncc(NC(=O)C(C)(C)CC)s2)C2(C)C(C)CCC3(CCC(=O)C32)C(C)C1O (stereo not drawn) [Compound 18]
Clinical S. aureus 144
  MIC, S. aureus 144: 0.5 µg/mL (≈ 0.846 µM)
[1]
  MIC, Mycoplasma gallisepticum 352-tiamulin resistant strain: 0.5 µg/mL (≈ 0.846 µM)
[2]
  MIC, MRSA ATCC 43300: 0.25 µg/mL (≈ 0.423 µM)
[3]
  MIC, Mycoplasma gallisepticum 352: 0.03 µg/mL (≈ 0.0508 µM)
[4]
  MIC, Mycoplasma gallisepticum M47: 1 µg/mL (≈ 1.69 µM)
[5]
  MIC, S. aureus ATCC 29213: 0.25 µg/mL (≈ 0.423 µM)
[6]
  MIC, S. aureus AD3: 0.25 µg/mL (≈ 0.423 µM)
